According to paper PMC9738565, “N1-Benzyl Tryptamine Pan-SHIP1/2 Inhibitors: Synthesis and Preliminary Biological Evaluation as Anti-Tumor Agents” (Molecules, 2022):

What was measured:
[1] = system: human blood cell cancers that express SHIP1; parameters: method as in PMID 20200281, PMID 22033675; settings: cited from earlier work
multiple myeloma = system: multiple myeloma; parameters: method as in PMID 22033675; settings: xenogeneic multiple myeloma model in mice; cited from earlier work
[2] = system: recombinant human truncated SHIP1 (tSHIP1); experiment: Malachite green phosphatase release assay, SHIP1; assay type: biochemical; settings: for Malachite (250 µM) % Inhib. SHIP1: 250 µM compound; for Malachite (500 µM) % Inhib. SHIP1: 500 µM compound; for activity against SHIP1 (in words): summary of Table 1
Method: These compounds were then tested for their activity against the two SHIP paralogs, SHIP1 and SHIP2 in the colorimetric malachite green phosphatase assay. The malachite green assay detects the amount of free phosphate produced from enzymatic reactions with SHIP and an inositol phospholipid substrate. The Malachite assay is useful for ruling out compounds that are fluorescent or have aggregation issues and is inexpensive, so it was utilized as the primary screen even though it is not as sensitive as other assays.
(§1) 4.7. Malachite Green Phosphatase Release Assays
(§2) Malachite green assays to monitor phosphatase release (Echelon Biosciences) were performed with recombinant human truncated SHIP1 (tSHIP1) and SHIP2 (Echelon Biosciences). Serial dilutions of the compounds dissolved in DMSO were added to the recombinant enzymes diluted in reaction buffer Rx (50 mM Hepes pH 7.4, 150 mM NaCl, 1 mM MgCl2, 0.25 mM EDTA) in triplicate reaction wells in 96-well plates. After incubation for 2 min at room temperature, 2.5 µL of 1 mM phosphatidylinositol 3,4,5-trisphosphate diC8 (PI(3,4,5)P3-diC8, Echelon Biosciences) was added to each reaction to a final concentration of 100 µM in a final volume of 25 µL /well. Following a 20 min incubation at 37 °C, 100 µL of Malachite Green solution (Echelon Biosciences) was added to each well and the plates were incubated at room temperature in the dark for 15 min. Plates were then read at 620 nm on a plate reader (Synergy 2, BioTek, Santa Clara, CA, USA). In addition, 3α-Aminocholestane, a known SHIP1 inhibitor, and AS1949490, a known SHIP2 inhibitor, were used as positive controls.

tSHIP1 = molecular target: T1, tSHIP1 (Homo sapiens, UniProt Q92835); experiment: Fluorescence Polarization (FP) assay for the detection of PI(3,4)P2, SHIP1; assay type: biochemical
T1 sequence (Q92835 399-715 limits assumed): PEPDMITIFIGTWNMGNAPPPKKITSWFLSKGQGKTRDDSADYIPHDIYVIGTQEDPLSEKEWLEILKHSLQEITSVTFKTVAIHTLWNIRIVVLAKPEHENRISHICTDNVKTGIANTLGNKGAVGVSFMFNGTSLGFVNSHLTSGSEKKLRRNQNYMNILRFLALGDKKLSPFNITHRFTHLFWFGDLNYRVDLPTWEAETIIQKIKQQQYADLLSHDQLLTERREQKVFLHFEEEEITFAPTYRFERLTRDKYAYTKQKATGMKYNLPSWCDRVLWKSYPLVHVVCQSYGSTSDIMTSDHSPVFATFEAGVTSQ
Method: (§3) These compounds were then tested for their activity against the two SHIP paralogs, SHIP1 and SHIP2 in the colorimetric malachite green phosphatase assay. The malachite green assay detects the amount of free phosphate produced from enzymatic reactions with SHIP and an inositol phospholipid substrate.
4.8. Fluorescence Polarization (FP) Assays for the Detection of PI(3,4)P2
The FP Assay for the detection of PI(3,4)P2 (Echelon Biosciences) was performed using tSHIP1 [48] with serial dilutions of the tryptamines in DMSO according to the manufacturer’s recommendation as previously described. […] 40 µL of 4 µM PIP3 (PI(3,4,5)P3-diC8) in Rx buffer is added to each reaction and incubated at 37 °C for 20 min, followed by heat inactivation for 3 min at 95 °C. Reactions were spun down briefly and 10 µL of each reaction was added in 6 replicate wells to a black 384-well plate provided with the FP kit. 10 µL of 1X reconstituted Detector (a phosphoinositide binding protein) in PBS is then added to each well, followed by 5 µL of 1X freshly diluted Probe (in PBS, a fluorophore-labeled phosphoinositide) protected from light. Assay plates are gently tapped to mix, the plate is sealed and spun down briefly and the reaction is allowed to equilibrate for 60 min at room temperature protected from light.

OCRL = system: OCRL; parameters: method as in PMID 22033675; settings: cited from earlier work
SHIP2 = molecular target: T2, SHIP2 (Homo sapiens, UniProt O15357); experiment: Malachite green phosphatase release assay, SHIP2; assay type: biochemical
T2 construct: purchased Echelon Biosciences
T2 sequence (O15357 1-1258): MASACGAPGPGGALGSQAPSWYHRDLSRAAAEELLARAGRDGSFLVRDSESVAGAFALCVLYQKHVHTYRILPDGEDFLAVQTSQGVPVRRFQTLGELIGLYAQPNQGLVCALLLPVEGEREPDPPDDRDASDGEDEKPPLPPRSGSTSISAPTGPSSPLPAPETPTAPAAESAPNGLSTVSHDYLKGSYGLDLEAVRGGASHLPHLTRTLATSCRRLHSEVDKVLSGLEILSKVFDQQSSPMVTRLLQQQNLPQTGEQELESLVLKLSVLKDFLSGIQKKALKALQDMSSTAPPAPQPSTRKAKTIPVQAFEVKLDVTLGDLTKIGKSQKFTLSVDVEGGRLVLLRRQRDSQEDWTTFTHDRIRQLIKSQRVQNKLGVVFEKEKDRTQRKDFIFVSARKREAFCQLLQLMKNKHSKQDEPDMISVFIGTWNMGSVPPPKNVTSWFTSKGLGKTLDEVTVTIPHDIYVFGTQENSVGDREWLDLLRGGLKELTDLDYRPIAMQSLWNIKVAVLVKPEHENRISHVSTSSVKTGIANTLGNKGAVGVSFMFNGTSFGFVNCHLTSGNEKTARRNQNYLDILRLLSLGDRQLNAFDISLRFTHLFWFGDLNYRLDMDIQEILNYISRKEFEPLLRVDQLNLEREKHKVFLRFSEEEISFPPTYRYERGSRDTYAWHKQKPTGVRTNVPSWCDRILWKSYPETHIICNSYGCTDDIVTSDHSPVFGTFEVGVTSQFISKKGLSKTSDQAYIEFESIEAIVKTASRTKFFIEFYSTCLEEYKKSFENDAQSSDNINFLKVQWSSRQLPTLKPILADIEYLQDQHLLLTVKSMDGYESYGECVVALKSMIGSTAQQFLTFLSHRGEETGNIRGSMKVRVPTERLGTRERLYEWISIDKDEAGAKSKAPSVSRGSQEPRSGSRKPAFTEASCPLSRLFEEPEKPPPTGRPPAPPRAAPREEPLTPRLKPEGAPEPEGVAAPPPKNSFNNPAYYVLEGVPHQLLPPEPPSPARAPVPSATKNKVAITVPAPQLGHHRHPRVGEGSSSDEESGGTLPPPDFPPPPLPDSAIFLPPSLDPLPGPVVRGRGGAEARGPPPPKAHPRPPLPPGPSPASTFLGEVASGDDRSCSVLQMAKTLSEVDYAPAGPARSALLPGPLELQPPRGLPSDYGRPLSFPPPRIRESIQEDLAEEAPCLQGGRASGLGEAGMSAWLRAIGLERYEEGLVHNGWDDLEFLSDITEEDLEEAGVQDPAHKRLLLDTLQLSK
Method: as §3, §1, §2

[3] = system: several cell lines, especially breast cancer cells; parameters: method as in PMID 22033675, PMID 27716613; settings: cited from earlier work
multiple myeloma cells = system: multiple myeloma cells; parameters: method as in PMID 22033675; settings: followed by caspase cascade activation leading to extensive apoptosis; cited from earlier work
mice = experiment: Side effect observed in mice; settings: in vivo
[4] = system: leukemia cell lines (NB4, HSB2, K562 and 697-Pre-B), multiple myeloma cell line OPM-2, breast cancer cell lines MBA-MD-231 and MCF-7; experiment: MTT cell viability assay on cancer cell lines; assay type: cell-based; settings: Figure 3
Excerpt: . The assay monitors the ability of NADPH-dependent cellular oxidoreductases to reduce the dye MTT (3-(4,5-dimethylthiazol-2-yl)-2,5-diphenyltetrazolium bromide), which when reduced produces a purple color that can be easily quantified. This assay is often used to determine cell viability. […] All of these cell lines express SHIP1 due to their hematopoietic origin, as SHIP1 is selectively expressed in blood and bone marrow cells. Cytotoxicity was also found on the breast cancer cell lines MBA-MD-231 and MCF-7, which is likely due to the inhibition of SHIP2. […]. 4.9. MTT Cell Viability Assay
Cells were treated in triplicate or more with increasing concentrations of the compound. Cell viability was determined with a Cell Counting Kit (Dojindo Molecular Technologies, Rockville, MD, USA) per the manufacturer’s instructions. The […] (OD) of compound-treated cells was divided by the OD of their vehicle control, and the viability was expressed as a percentage of untreated cells. Results are expressed as mean ± standard error of the mean (SEM) of three individual experiments. […]

## CC(C)CCC[C@@H](C)[C@H]1CC[C@H]2[C@@H]3CC[C@H]4C[C@H](N)CC[C@]4(C)[C@H]3CC[C@]12C [Compound 3AC, 3α-aminocholestane]
[1]
  Akt activation and apoptosis: reduces Akt activation and promotes apoptosis
Multiple myeloma
  protection from multiple myeloma growth: effective in protecting the majority of mice

## CSc1ccc2c(c1)c(CCN)c(C)n2Cc1ccccc1Cl.Cl [Compound 1, 2-(1-(2-Chlorobenzyl)-2-methyl-5-(methylthio)-1H-indol-3-yl)ethanaminium chloride]
[2]
  Malachite (250 µM) % Inhib. SHIP1: 7%
  Malachite (500 µM) % Inhib. SHIP1: 51%
  activity against SHIP1 (in words): significant activity
tSHIP1
  IC50: 5 µM
OCRL
  effect on OCRL: no effect
SHIP2; 250 µM compound, read-out: Malachite (250 µM) % Inhib. SHIP2
  inhibition at 250 µM: 7%
SHIP2; 500 µM compound, read-out: Malachite (500 µM) % Inhib. SHIP2
  inhibition at 500 µM: 59%
SHIP2; summary of Table 1
  activity against SHIP2 (in words): significant activity
[3]
  antitumor effects on cell lines: significant antitumor effects
Multiple myeloma cells
  cell cycle effect in multiple myeloma cells: G2/M cell cycle arrest
mice
  psychotropic effect in mice: induced a psychotropic effect

## CSc1ccc2c(c1)c(CCN)c(C)n2Cc1ccc(Cl)cc1Cl.Cl [Compound 7d, 2-(1-(2,4-Dichlorobenzyl)-2-methyl-5-(methylthio)-1H-indol-3-yl)ethanaminium chloride]
[2]
  Malachite (250 µM) % Inhib. SHIP1: 32%
  Malachite (500 µM) % Inhib. SHIP1: 52%
  activity against SHIP1 (in words): significant activity
[4]
  cytotoxicity on cancer cell lines (in words): greatest cytotoxicity
